Values quoted from earlier work in EP0893486B1, “Acrylic compositions for consolidation of soils and concrete in general” (Draco Italiana S.p.A., priority 1997, dated 1999).

Conditions: classification of the single monomer

Compound | classified as
C=C(C)C(=O)OCCO [2-hydroxyethylmethacrylate] | irritants
C=CC(=O)OCC(CC)(COCC(CC)(COC(=O)C=C)COC(=O)C=C)COC(=O)C=C [Ditrimetbylolpropanetetraacrylate] | irritants
C=C(C)C(=O)OCC(CC)(COC(=O)C(=C)C)COC(=O)C(=C)C [trimethylolpropanetrimethacrylate] | irritants
polyethyleneglycol-400-diacrylate | irritants
polyethyleneglycol-600-dimethacrylate | irritants
polyethyleneglycolmonoacrylate | irritants
trimethylolpropanetriacrylate-ethoxylate | irritants
